Results reported in ChEMBL document CHEMBL4316630, “Benzimidazole-based DGAT1 inhibitors with a [3.1.0] bicyclohexane carboxylic acid moiety” (Bioorg Med Chem Lett, 2019).

Key:
[1] = Stability in mouse hepatocytes assessed as epimerization incubated for 2 hrs by UPLC/HRMS analysis; format: ADME, cell-based, Hepatocyte
[2] = Plasma concentration in mouse at 10 mg/kg, po; format: ADME, organism-based; settings: in vivo
[3] = Stability in rat hepatocytes assessed as epimerization incubated for 2 hrs by UPLC/HRMS analysis; format: ADME, cell-based, Hepatocyte
[4] = Lipophilicity, log D of the compound by HPLC analysis; format: physicochemical
[5] = Drug metabolism in mouse assessed as epimerization by measuring plasma concentration of 1s,4s)-4-(1-(5-(5-(trifluoromethyl)-1H-benzo[d]imidazol-2-yl)pyridin-2-yl)piperidin-4-yloxy)cyclohexanecarboxylic acid at 10 mg/kg, po after 3 hrs; format: ADME, organism-based; settings: in vivo
[6] = Stability in human hepatocytes assessed as epimerization incubated for 2 hrs by UPLC/HRMS analysis; format: ADME, cell-based, Hepatocyte
[7] = Plasma concentration in mouse at 10 mg/kg, po after 3 hrs; format: ADME, organism-based
Homo sapiens = species on record: Homo sapiens; assay: Selectivity index, ratio of IC50 for human ACAT1 to IC50 for human DGAT1
Mus musculus [8] = assay: Reduction in lipid excursion in mouse assessed as change in triglyceride level at 10 mg/kg, po measured at 18 hrs post dose by lipid tolerance test; format: functional; design: scale not given: the % may be the effect or the level left
[9] = target: T1, Sterol O-acyltransferase 1 (Homo sapiens, UniProt P35610); assay: Inhibition of human ACAT1
T1 sequence (P35610 whole entry): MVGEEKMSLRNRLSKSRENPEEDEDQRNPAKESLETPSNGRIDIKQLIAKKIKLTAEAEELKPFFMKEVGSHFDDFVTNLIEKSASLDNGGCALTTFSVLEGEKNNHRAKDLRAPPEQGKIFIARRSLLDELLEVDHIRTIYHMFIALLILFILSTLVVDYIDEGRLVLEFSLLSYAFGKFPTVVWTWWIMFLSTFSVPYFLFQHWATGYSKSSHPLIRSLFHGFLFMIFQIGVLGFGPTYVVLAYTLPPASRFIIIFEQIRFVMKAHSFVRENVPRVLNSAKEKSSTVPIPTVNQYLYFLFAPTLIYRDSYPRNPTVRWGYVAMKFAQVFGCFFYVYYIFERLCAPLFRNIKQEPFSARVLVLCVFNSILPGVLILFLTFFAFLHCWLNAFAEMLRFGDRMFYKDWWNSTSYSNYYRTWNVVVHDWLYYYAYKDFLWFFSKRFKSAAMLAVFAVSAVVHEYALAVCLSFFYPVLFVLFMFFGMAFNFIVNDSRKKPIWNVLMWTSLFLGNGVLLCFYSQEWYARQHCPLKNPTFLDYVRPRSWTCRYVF

[10] = target: T2, Diacylglycerol O-acyltransferase 1 (Mus musculus, UniProt Q9Z2A7); assay: Inhibition of mouse DGAT1
T2 sequence (Q9Z2A7 whole entry): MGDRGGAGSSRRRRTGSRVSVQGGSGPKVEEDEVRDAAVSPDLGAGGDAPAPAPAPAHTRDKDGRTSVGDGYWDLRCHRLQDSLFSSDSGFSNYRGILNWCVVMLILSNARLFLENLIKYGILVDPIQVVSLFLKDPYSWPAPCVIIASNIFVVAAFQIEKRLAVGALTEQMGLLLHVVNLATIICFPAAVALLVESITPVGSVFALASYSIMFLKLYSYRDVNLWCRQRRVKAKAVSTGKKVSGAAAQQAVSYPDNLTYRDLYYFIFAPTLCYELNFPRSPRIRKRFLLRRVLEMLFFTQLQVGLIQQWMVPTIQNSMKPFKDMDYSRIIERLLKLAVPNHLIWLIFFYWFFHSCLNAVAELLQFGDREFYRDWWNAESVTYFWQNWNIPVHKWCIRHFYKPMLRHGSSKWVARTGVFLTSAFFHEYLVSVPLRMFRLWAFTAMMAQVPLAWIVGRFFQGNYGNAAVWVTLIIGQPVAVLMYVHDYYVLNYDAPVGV

Mus musculus [11] = assay: Reduction in lipid excursion in mouse assessed as change in triglyceride level at 3 mg/kg, po measured at 18 hrs post dose by lipid tolerance test; format: functional; design: scale not given: the % may be the effect or the level left
[12] = target: T3, Diacylglycerol O-acyltransferase 1 (Homo sapiens, UniProt O75907); assay: Inhibition of human DGAT1
T3 sequence (O75907 whole entry): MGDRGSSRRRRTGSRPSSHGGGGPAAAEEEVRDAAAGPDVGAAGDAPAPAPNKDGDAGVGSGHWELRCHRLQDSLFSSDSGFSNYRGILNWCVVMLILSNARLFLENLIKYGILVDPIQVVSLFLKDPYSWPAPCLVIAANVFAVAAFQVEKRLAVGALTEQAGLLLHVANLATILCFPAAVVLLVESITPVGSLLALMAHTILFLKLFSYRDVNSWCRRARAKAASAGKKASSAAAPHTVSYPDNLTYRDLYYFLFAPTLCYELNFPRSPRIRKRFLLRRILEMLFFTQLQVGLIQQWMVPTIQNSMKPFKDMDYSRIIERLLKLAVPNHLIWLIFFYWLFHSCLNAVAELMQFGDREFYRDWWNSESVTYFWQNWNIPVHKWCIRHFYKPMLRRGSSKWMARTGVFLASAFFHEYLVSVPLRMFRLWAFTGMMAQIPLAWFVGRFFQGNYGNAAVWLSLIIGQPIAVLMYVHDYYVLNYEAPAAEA

[13] = Plasma concentration in mouse at 3 mg/kg, po; format: ADME, organism-based; settings: in vivo
[14] = Drug metabolism in rat hepatocytes assessed as glucuronide formation incubated for 2 hrs by UPLC/HRMS analysis; format: ADME, cell-based, Hepatocyte
[15] = Drug metabolism in human hepatocytes assessed as glucuronide formation incubated for 2 hrs by UPLC/HRMS analysis; format: ADME, cell-based, Hepatocyte
[16] = Drug metabolism in mouse hepatocytes assessed as glucuronide formation incubated for 2 hrs by UPLC/HRMS analysis; format: ADME, cell-based, Hepatocyte
[17] = Plasma concentration in mouse at 10 mg/kg, po after 4 hrs; format: ADME, organism-based

SMILES | Stability [1] | concentration [2] [nM] | Stability [3] | logD [4] | concentration [5] [nM] | Stability [6] | concentration at 3 h [7] [nM] | Ratio IC50 (Homo sapiens) | Activity (Mus musculus [8]) [%] | IC50 [9] [nM] | IC50 [10] [nM] | Activity (Mus musculus [11]) [%] | IC50 [12] [nM] | concentration [13] [nM] | Drug metabolism [14] | Drug metabolism [15] | Drug metabolism [16] | concentration at 4 h [17] [nM]
O=C(O)[C@H]1CC[C@H](OC2CCN(c3ccc(-c4nc5cc(C(F)(F)F)ccc5[nH]4)cn3)CC2)CC1 | Unstable | 17 | Unstable | 1.68 | 54 | Unstable | 324 | > 2500 | -89 |  |  |  |  |  |  |  |  | 
O=C(O)[C@@H]1[C@@H]2C[C@@H](OC3CCN(c4ccc(-c5nc6cc(C(F)(F)F)ccc6[nH]5)cn4)CC3)C[C@@H]21 |  |  |  | 1.73 |  |  |  | > 1690 |  | > 10000 | 48 | -30 | 5.9 | 51 |  |  |  | 
O=C(O)[C@H]1[C@@H]2C[C@@H](OC3CCN(c4ccc(-c5nc6cc(C(F)(F)F)ccc6[nH]5)cn4)CC3)C[C@@H]21 |  |  |  | 1.87 |  |  |  | > 2600 |  | > 10000 | 22 | -30 | 3.8 | 25 |  |  |  | 
O=C(O)[C@H]1CC[C@@H](OC2CCN(c3ccc(-c4nc5cc(C(F)(F)F)ccc5[nH]4)cn3)CC2)CC1 | Unstable | 26 | Unstable | 1.64 |  | Unstable |  | > 4000 | -75 |  |  |  |  |  |  |  |  | 
O=C(O)[C@@H]1[C@@H]2C[C@H](OC3CCN(c4ccc(-c5nc6cc(C(F)(F)F)ccc6[nH]5)cn4)CC3)C[C@@H]21 | Stable |  | Stable | 1.88 |  | Stable |  | > 900 |  | > 10000 | 74 | 3 |  | 23 | Metabolite_Detected | Metabolite_Detected | Metabolite_Detected | 
O=C(O)[C@H]1[C@@H]2C[C@H](OC3CCN(c4ccc(-c5nc6cc(C(F)(F)F)ccc6[nH]5)cn4)CC3)C[C@@H]21 | Stable |  | Stable | 1.9 |  | Stable |  | 1950 |  | 3900 | 4.3 | -70 |  | 27 | Metabolite_Detected | Metabolite_Detected | Metabolite_Detected | 151
